Reference: publication PMC12525728, “Safety, Pharmacokinetics, Translational and Molecular Mechanistic Insights on the Prostate Cancer Recurrence Suppressor Pseurotin A” (Molecules, 2025)

Experiments:
[1] = Qualitative tissue distribution (biodistribution) study after IP dosing; assay type: in vivo, Swiss albino mice; conditions: IP 125 mg/kg, 7 min after dosing
Method: Five µL of the IS ([…]) and 20 µL of 50, 40, 30, 20, 10, 8, and 4 µg/mL PsA standard solutions were combined with 15 µL freshly extracted blank mouse plasma. 300 µL of a 70% EtOAc/30% isopropanol mixture was added and vortexed for 30 s. Following centrifugation at 15,000× g for 10 min, the supernatant was transferred to a 2 mL Eppendorf tube for nitrogen evaporation. The residues were reconstituted in 25 µL HPLC-grade MeOH before being subjected to 30 s sonication followed by centrifugation at 15,000× g for 10 min. Afterwards, the entire sample was immediately injected for RP-HPLC analysis. The mouse plasma samples used in the PK study were subjected to the same extraction method, minus the addition of the PsA standard solutions. After weighing, each mouse organ was reconstituted in 500 µL PBS, then homogenized using the MISONIX Sonicator (Division of QSonica LLC, Newtown, CT, USA). Samples were centrifuged at 15,000× g for 10 min, and the supernatant was collected and transferred to a 2 mL Eppendorf. About 5 µL of IS (25 µL/mL) and 300 µL of a 70% EtOAc/30% isopropanol mixture were added to 100 µL of supernatant and vortexed for 30 s. Following centrifugation at 15,000× g for 10 min, the supernatant was transferred to a 2 mL Eppendorf tube and evaporated under N2. The remains were reconstituted in 40 µL HPLC-grade methanol before being subjected to 30 s sonication followed by centrifugation at 15,000× g for 10 min.
For the biodistribution study, four healthy male and two healthy female Swiss albino mice were randomly selected and placed in 2 groups (n = 3/group). The mice received free access to drinking water and pelleted regular rodent chow (Cat# 7012, Envigo/Teklad, Madison, WI, USA) until the day before experimentation, after which they were fasted for 8 h and allowed only free access to drinking water. One group was IP administered 125 mg/kg PsA formulated in PBS-DMSO (925:75) + 0.2% Tween 80 at a body weight-adjusted volume not exceeding 300 µL. […] Collected samples were immediately extracted using the described method above and analyzed using HPLC.

Swiss albino mice = experiment: 90-day daily oral dosing sub-chronic toxicity study (body weight, behavior, organ weight, histology); assay type: in vivo; conditions: for Relative organ weight, Brain / Relative organ weight, Heart / Relative organ weight, Kidneys / Relative organ weight, Liver / Relative organ weight, Lungs / Relative organ weight, Spleen: mean ± SD
Method: For the 90-day daily oral dosing sub-chronic toxicity study, twenty male and twenty female healthy 8-week-old Swiss albino mice were randomly selected and randomized to […] (n = 5/sex/group). Mice received free access to purified drinking water and high-fat diet (HFD) pelleted rodent chow (11.4% total fat, no. 7004, Envigo/Teklad, Madison, WI, USA) until the day before sacrifice, at which time they were fasted for 8 h and allowed only free access to drinking water. Daily doses of PsA (10, 40, 80 mg/kg body weight) were administered to the mice formulated in <5% DMSO (Mediatech Inc., Manassas, VA, USA) and <0.2% Tween 80 (Croda Inc., Princeton, NJ, USA) at a volume not exceeding 1% of body weight by metal oral gavage (2 mm diameter with stainless steel bite protector, 18-gauge, 3.81 cm long). […] The mice were observed weekly until the completion of the study. The body weights of the mice were measured in grams using a Scout^TM Pro (Ohaus Corp., Pine Brook, NJ, USA) on day 0, 4, 8, 11, 14, 21, 28, 35, 42, 49, 56, 63, 70, 77, 83, and 90 after initial treatment. On day 90, all mice were anesthetized using isoflurane (USP-vaporizer method, Matrix VIP-3000, Covetrus, Dublin, OH, USA, exposure of animals in an anesthesia chamber at 3% isoflurane vaporization rate. Exposure time 2 min). Mice were then euthanized by cervical dislocation according to the 2020 AVMA Guidelines on Euthanasia and dissected. Mice organs (brain, liver, kidney, heart, lungs, spleen) were excised and weighed for histopathological examination. The organs were stored in 10% neutral buffered formalin (Avantor Science Central, Allentown, PA, USA) for 24 h and then transferred to 70% ethanol (AAPER ALCOHOL, Shelbyville, KY, USA). This study was performed following the OECD guideline 408 for the testing of chemicals.
The experimental animals’ organs were carefully excised and quickly fixed in 10% neutral buffered formalin for 24 h before being transferred to 70% ethanol. The organs were embedded in paraffin before sectioning and staining with hematoxylin and eosin (H&E). All sectioning and staining were conducted at the AML Laboratories (Jacksonville, FL, USA). The paraffin-embedded tissues were sliced into 5 µm-thick sections before being mounted on a positively charged slide. The 5 µm-thick sections were then dewaxed using xylene, rinsed using 80–95% ethanol, and rehydrated using H2O. They were subsequently stained with H&E before being dehydrated again using 80–95% ethanol to xylene.
Results for the hematological and biochemical parameters were analyzed separately by One-way Analysis of Variance (ANOVA), followed by multiple comparisons with Dunnett’s test. All statistical analyses were performed using GraphPad Prism version 8 software (San Diego, CA, USA). Data in this study were expressed as a mean ± SD (standard deviation) and mean ± SEM (standard error of mean). A probability value of <0.05 was considered statistically significant (* p < 0.05; ** p < 0.01; and *** p < 0.001).

[2] = female, 10mg/kg daily oral 90 days
[3] = female, 40mg/kg daily oral 90 days
[4] = female, 80mg/kg daily oral 90 days
[5] = male, 10mg/kg daily oral 90 days
[6] = male, 40mg/kg daily oral 90 days
[7] = male, 80mg/kg daily oral 90 days

SMILES: CC/C=C\[C@H](O)[C@H](O)C1=C(C)C(=O)[C@]2(O1)C(=O)N[C@@](OC)(C(=O)c1ccccc1)[C@@H]2O [PsA, pseurotin A]
- PsA HPLC peak in brain tissue (BBB crossing) [1]: did not display PsA peak
- PsA HPLC peak in liver, kidney, heart and spleen tissue [1]: prominent PsA peak
- PsA HPLC peak in plasma [1]: prominent PsA peak
- behavioral, neuromuscular and autonomic responses (Swiss albino mice; daily oral doses over 90 days): no observable effects
- Relative organ weight, Brain (Swiss albino mice; [2]): 438.5 ± 18.9
- Relative organ weight, Heart (Swiss albino mice; [2]): 197.7 ± 33.5
- Relative organ weight, Kidneys (Swiss albino mice; [2]): 475.9 ± 31.8
- Relative organ weight, Liver (Swiss albino mice; [2]): 1218 ± 31.6
- Relative organ weight, Lungs (Swiss albino mice; [2]): 211.7 ± 40.2
- Relative organ weight, Spleen (Swiss albino mice; [2]): 106.3 ± 48.4
- Relative organ weight, Brain (Swiss albino mice; [3]): 355.1 ± 25.2
- Relative organ weight, Heart (Swiss albino mice; [3]): 186.2 ± 12.3
- Relative organ weight, Kidneys (Swiss albino mice; [3]): 470.4 ± 87.8
- Relative organ weight, Liver (Swiss albino mice; [3]): 1311 ± 135.7
- Relative organ weight, Lungs (Swiss albino mice; [3]): 229.0 ± 37.1
- Relative organ weight, Spleen (Swiss albino mice; [3]): 125.1 ± 22.6
- Relative organ weight, Brain (Swiss albino mice; [4]): 376.7 ± 47.4
- Relative organ weight, Heart (Swiss albino mice; [4]): 231.1 ± 24.4
- Relative organ weight, Kidneys (Swiss albino mice; [4]): 461.9 ± 20.6
- Relative organ weight, Liver (Swiss albino mice; [4]): 1369 ± 146.3
- Relative organ weight, Lungs (Swiss albino mice; [4]): 236.9 ± 66.2
- Relative organ weight, Spleen (Swiss albino mice; [4]): 109.7 ± 20.2
- average heart weight versus vehicle control (Swiss albino mice; male 10 mg/kg and 40 mg/kg groups, 90 days): significant decrease
- body weight versus vehicle control (Swiss albino mice; male and female, 10, 40, 80 mg/kg daily oral 90 days, sixteen time points): did not show any significant changes
- Relative organ weight, Heart (Swiss albino mice; [5]): 248.1 ± 54.6
- Relative organ weight, Kidneys (Swiss albino mice; [5]): 684.7 ± 41.0
- Relative organ weight, Liver (Swiss albino mice; [5]): 1881 ± 134.3
- Relative organ weight, Lungs (Swiss albino mice; [5]): 288.8 ± 62.4
- Relative organ weight, Spleen (Swiss albino mice; [5]): 114.7 ± 21.4
- Relative organ weight, Brain (Swiss albino mice; [6]): 413.6 ± 54.5
- Relative organ weight, Heart (Swiss albino mice; [6]): 261.7 ± 25.2
- Relative organ weight, Kidneys (Swiss albino mice; [6]): 747.5 ± 92.3
- Relative organ weight, Liver (Swiss albino mice; [6]): 1869 ± 295.8
- Relative organ weight, Lungs (Swiss albino mice; [6]): 302.1 ± 23.5
- Relative organ weight, Spleen (Swiss albino mice; [6]): 118.5 ± 3.9
- Relative organ weight, Brain (Swiss albino mice; [7]): 409.2 ± 28.3
- Relative organ weight, Heart (Swiss albino mice; [7]): 320.8 ± 58.9
- Relative organ weight, Kidneys (Swiss albino mice; [7]): 673.7 ± 50.1
- Relative organ weight, Liver (Swiss albino mice; [7]): 1946 ± 272.4
- Relative organ weight, Lungs (Swiss albino mice; [7]): 209.9 ± 61.0
- Relative organ weight, Spleen (Swiss albino mice; [7]): 108.7 ± 12.1
- organ histology (liver, lungs, kidneys, heart, brain) versus vehicle control (Swiss albino mice; up to 80 mg/kg, 90-day dosing, H&E): no structural or morphological differences
